Results on 42 compounds are retold here after patent US20110306597A1, “Nicotinamide Derivatives” (priority 2008, published 2011).

pIC50: −log10 of the molar value. A value given as a limit tells only on which side of the number the result lay.

The assay concerns the target human recombinant H-PGDS (Homo sapiens, UniProt O60760). The experiment in a line: Fluorescence Intensity h-PGDS TBA Enzyme Assay. The assay is classed as biochemical. To be noted: 1:175,000 human recombinant H-PGDS, highest inhibitor concentration typically 1 μM. Put shortly: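 Recombinant human H-PGDS preincubated 10 min at room temperature with inhibitor in 100 mM Tris pH 8.0, 100 μM MgCl2, 2.5 mM glutathione, 0.5% DMSO; 5.0 μM PGH2 added, stopped after 42 s with FeCl2/citric acid. Remaining PGH2 measured as MDA–TBA fluorescence (ex 530/em 565 nm); IC50 by 4-parameter fit, 11 concentrations.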

Chain of human recombinant H-PGDS (O60760 whole entry): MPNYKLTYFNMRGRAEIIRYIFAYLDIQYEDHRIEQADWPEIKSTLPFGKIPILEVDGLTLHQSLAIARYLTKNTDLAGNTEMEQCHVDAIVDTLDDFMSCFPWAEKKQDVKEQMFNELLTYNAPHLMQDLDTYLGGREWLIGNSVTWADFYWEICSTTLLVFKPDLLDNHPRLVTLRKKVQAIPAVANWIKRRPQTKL

`CCC(NC(=O)c1ccc(-c2cccc(F)c2)nc1)c1nn[nH]n1` (stereo not drawn) [Example 60, 6-(3-Fluorophenyl)-N-[1-(2H-tetrazol-5-yl)propyl]nicotinamide]: the pIC50 (usually the IC50 on a negative log10 scale, so that one unit is a factor of ten) was 7.41. The same measure for `COC(=O)CCCNC(=O)c1ccc(-c2cccc(F)c2)nc1` [Example 44, Methyl 4-({[6-(3-fluorophenyl)pyridin-3-yl]carbonyl}amino)butanoate]: 7.88. The same measure for `CCOC(=O)C(CNC(=O)c1ccc(-c2ccc(F)cc2)nc1)C1CCCC1` (stereo not drawn) [Example 260, Ethyl 2-cyclopentyl-3-({[6-(4-fluorophenyl)pyridin-3-yl]carbonyl}amino)propanoate]: 6.50. The same measure for `Cc1nc(CCNC(=O)c2cnc(-c3cccc(F)c3)c(Cl)c2)cs1` [Example 544, 5-Chloro-6-(3-fluorophenyl)-N-[2-(2-methyl-1,3-thiazol-4-yl)ethyl]nicotinamide]: 7.92; for `Cc1cccc(-c2ccc(C(=O)NC(=O)CC(N)C3CC3)cn2)c1` (stereo not drawn) [Example 248, N-(3-Amino-3-cyclopropylpropanoyl)-6-(3-methylphenyl)nicotinamide]: 7.13. In the case of `CN(C)CC(C)(C)CNC(=O)c1ccc(-c2ccc(F)cc2)nc1` [Example 266, N-[3-(Dimethylamino)-2,2-dimethylpropyl]-6-(4-fluorophenyl)nicotinamide], the pIC50 was not above 6.00. On to `Cc1cccc(-c2ccc(C(=O)NCc3nc(CS(C)(=O)=O)no3)cn2)c1` [Example 222, 6-(3-Methylphenyl)-N-({3-[(methylsulfonyl)methyl]-1,2,4-oxadiazol-5-yl}methyl)nicotinamide], for which the pIC50 is 6.45. As to `O=C(NCc1coc(-c2ccccc2)n1)c1ccc(-c2cccc(F)c2)nc1` [Example 152, 6-(3-Fluorophenyl)-N-[(2-phenyl-1,3-oxazol-4-yl)methyl]nicotinamide], the pIC50 is 8.35. The same measure for `CNS(=O)(=O)c1ccc(CNC(=O)c2cnc(-c3cccc(F)c3)c(Cl)c2)cc1` [Example 554, 5-Chloro-6-(3-fluorophenyl)-N-{4-[(methylamino)sulfonyl]benzyl}nicotinamide]: 6.65; for `Cc1cccc(-c2ccc(C(=O)NC3CCOCC3)cn2)c1` [Example 252, 6-(3-Methylphenyl)-N-(tetrahydro-2H-pyran-4-yl)nicotinamide]: 7.89. `CCOC(=O)CC(NC(=O)c1ccc(-c2cccc(F)c2)nc1)c1ccccc1` (stereo not drawn) [Example 406, Ethyl 3-({[6-(3-fluorophenyl)pyridin-3-yl]carbonyl}amino)-3-phenylpropanoate]: the negative logarithm of the IC50 (pIC50) is 7.00. The same measure for `CC(C)c1cc(CNC(=O)c2ccc(-c3cccc(F)c3)nc2)on1` [Example 127, 6-(3-Fluorophenyl)-N-[(3-isopropylisoxazol-5-yl)methyl]nicotinamide]: 7.52.

Take `CC(C)OCCCN1CC(CNC(=O)c2ccc(-c3cccc(F)c3)nc2)OCC1=O` (stereo not drawn) [Example 216, 6-(3-Fluorophenyl)-N-{[4-(3-isopropoxypropyl)-5-oxomorpholin-2-yl]methyl}nicotinamide]: the negative logarithm of the IC50 (pIC50) is 6.89. With `Cc1ccccc1CNC(=O)c1ccc(-c2ccccc2)nc1` [Example 151, N-(2-Methylbenzyl)-6-phenylnicotinamide] the figure was 8.73. With `CCC(C)C(CO)NC(=O)c1ccc(-c2cccc(F)c2)nc1` (stereo not drawn) [Example 537, 6-(3-Fluorophenyl)-N-[1-(hydroxymethyl)-2-methylbutyl]nicotinamide] the figure was 7.21. With `O=C(Nc1ccc(F)cc1)c1ccc(-c2ccccc2)nc1` [Example 521, N-(4-Fluorophenyl)-6-phenylnicotinamide] the figure was 8.32. For `O=C(NCC1CC2(CCN(Cc3ccccn3)CC2)CO1)c1ccc(-c2cccc(F)c2)nc1` (stereo not drawn) [Example 53, 6-(3-Fluorophenyl)-N-{[8-(pyridin-2-ylmethyl)-2-oxa-8-azaspiro[4.5]dec-3-yl]methyl}nicotinamide], the pIC50 is 7.72.

For the compound `CN(C)C(=O)CNC(=O)c1ccc(-c2ccccc2)nc1` [Example 374, N-[2-(Dimethylamino)-2-oxoethyl]-6-phenylnicotinamide], the pIC50 was 7.04. `CNC(=O)N1[C@@H]2CC[C@H]1C[C@H](NC(=O)c1ccc(-c3cccc(F)c3)nc1)C2` [Example 594, (3-exo)-3-({[6-(3-Fluorophenyl)-pyridin-3-yl]carbonyl}amino)-N-methyl-8-azabicyclo[3.2.1]octane-8-carboxamide]: the pIC50 is 7.77. The same measure for `O=C(NC(CN1CCOCC1)c1ccccc1)c1ccc(-c2cccc(F)c2)nc1` (stereo not drawn) [Example 210, 6-(3-Fluorophenyl)-N-(2-morpholin-4-yl-1-phenylethyl)nicotinamide]: 7.41; for `O=C(NC1CCN(Cc2ccc(Cl)c(Cl)c2)C1=O)c1ccc(-c2ccccc2)nc1` (stereo not drawn) [Example 383, N-[1-(3,4-Dichlorobenzyl)-2-oxopyrrolidin-3-yl]-6-phenylnicotinamide]: 7.78. With `NC(CC(=O)NC(=O)c1ccc(-c2ccccc2)nc1)C1CC1` (stereo not drawn) [Example 364, N-(3-Amino-3-cyclopropylpropanoyl)-6-phenylnicotinamide], the negative-log IC50 (pIC50) is 7.41. With `O=C(NC1CCN(Cc2ccc(Cl)cc2)C1=O)c1ccc(-c2ccc(F)cc2)nc1` (stereo not drawn) [Example 474, N-[1-(4-Chlorobenzyl)-2-oxopyrrolidin-3-yl]-6-(4-fluorophenyl)nicotinamide] the figure was 6.13; with `NS(=O)(=O)c1ccc(CNC(=O)c2ccc(-c3ccc(F)cc3)nc2)cc1` [Example 460, N-[4-(Aminosulfonyl)benzyl]-6-(4-fluorophenyl) nicotinamide], not above 6.00. With `CS(=O)(=O)Cc1noc(CNC(=O)c2ccc(-c3ccc(F)cc3)nc2)n1` [Example 322, 6-(4-Fluorophenyl)-N-({3-[(methylsulfonyl)methyl]-1,2,4-oxadiazol-5-yl}methyl)nicotinamide] the figure was not above 6.00; with `COc1cccc(-c2ccc(C(=O)NC(C)C)cn2)c1` [Example 297, N-Isopropyl-6-(3-methoxyphenyl)nicotinamide], 6.45. The same measure for `Cc1cccc(-c2ccc(C(=O)NCc3ccc(S(C)(=O)=O)cc3)cn2)c1` [Example 247, 6-(3-Methylphenyl)-N-[4-(methylsulfonyl)benzyl] nicotinamide]: 7.74; for `COc1cccc(-c2ccc(C(=O)Nc3ccncc3)cn2)c1` [Example 336, 6-(3-Methoxyphenyl)-N-pyridin-4-ylnicotinamide]: 7.06. In the case of `CN1CCc2nc(N3CCCC(CNC(=O)c4ccc(-c5cccc(F)c5)nc4)C3)ncc2C1` (stereo not drawn) [Example 89, 6-(3-Fluorophenyl)-N-{[1-(6-methyl-5,6,7,8-tetrahydropyrido[4,3-d]pyrimidin-2-yl)piperidin-3-yl]methyl}nicotinamide], the negative logarithm of the IC50 (pIC50) is 8.21. The same measure for `COc1ccc(C(N)CC(=O)NC(=O)c2ccc(-c3cccc(C)c3)nc2)cc1OC` (stereo not drawn) [Example 452, N-[3-Amino-3-(3,4-dimethoxyphenyl)propanoyl]-6-(3-methylphenyl) nicotinamide]: 7.63.

`O=C(N[C@@H]1C[C@H]2CC[C@@H](C1)N2C(=O)N1CCC(O)CC1)c1ccc(-c2cccc(F)c2)nc1` [Example 596, 6-(3-Fluorophenyl)-N-(3-exo)-8-[(4-hydroxypiperidin-1-ylcarbonyl]-8-azabicyclo[3.2.1]octyl-3-yl}nicotinamide]: the negative logarithm of the IC50 (pIC50) was 7.96. The same measure for `COC(=O)CNC(=O)[C@H](C)NC(=O)c1ccc(-c2cccc(F)c2)nc1` [Example 165, Methyl N-{[6-(3-fluorophenyl)pyridin-3-yl]carbonyl}-L-alanylglycinate]: 7.68; for `CCOC(=O)CCNC(=O)c1ccc(-c2cccc(F)c2)nc1` [Example 209, Ethyl N-{[6-(3-fluorophenyl)pyridin-3-yl]carbonyl}-beta-alaninate]: 7.88. Regarding `COC(=O)CC(NC(=O)c1ccc(-c2ccc(F)cc2)nc1)c1cccnc1` (stereo not drawn) [Example 323, Methyl 3-({[6-(4-fluorophenyl)pyridin-3-yl]carbonyl}amino)-3-pyridin-3-ylpropanoate], the pIC50 was not above 6.00.

`CCOC(=O)CC(NC(=O)c1ccc(-c2ccc(F)cc2)nc1)c1ccc(OC)cc1` (stereo not drawn) [Example 506, Ethyl 3-({[6-(4-fluorophenyl)pyridin-3-yl]carbonyl}amino)-3-(4-methoxyphenyl)propanoate]: the negative-log IC50 (pIC50) is not above 6.00. With `COc1cccc(-c2ccc(C(=O)NC(=O)[C@@H](N)C(C)C)cn2)c1` [Example 287, 6-(3-Methoxyphenyl)-N-L-valylnicotinamide] the figure was 6.09; with `COc1cccc(-c2ccc(C(=O)NC(=O)CC(N)c3ccc(OC)c(OC)c3)cn2)c1` (stereo not drawn) [Example 277, N-[3-Amino-3-(3,4-dimethoxyphenyl)propanoyl]-6-(3-methoxyphenyl) nicotinamide], 6.56. The same measure for `O=C(NCc1nc2cc(F)ccc2[nH]1)c1ccc(-c2cccc(F)c2)nc1` [Example 146, N-[(5-Fluoro-1H-benzimidazol-2-yl)methyl]-6-(3-fluorophenyl)nicotinamide]: 7.47. For the compound `O=C(NCCN1CCCOC1=O)c1ccc(-c2cccc(F)c2)nc1` [Example 41, 6-(3-Fluorophenyl)-N-[2-(2-oxo-1,3-oxazinan-3-yl)ethyl]nicotinamide], the pIC50 is 7.74.

For `CCOC(=O)CC[C@H](NC(=O)c1ccc(-c2cccc(F)c2)nc1)C(=O)OCC` [Example 27, Diethyl N-{[6-(3-fluorophenyl)pyridin-3-yl]carbonyl}-L-glutamate], the negative-log IC50 (pIC50) is 8.37. As for `CCOCCCNC(=O)c1ccc(-c2cccc(F)c2)nc1` [Example 38, N-(3-Ethoxypropyl)-6-(3-fluorophenyl)nicotinamide], the pIC50 is 7.83. With `CCCOCCCNC(=O)c1ccc(-c2cc(F)cc(OC)c2)nc1` [Example 557, 6-(3-Fluoro-5-methoxypheny)-N-(3-propoxypropyl)nicotinamide], the negative logarithm of the IC50 (pIC50) was 7.05.
